Nine molecules from patent US11944605B2, “Rapamycin analogs and uses thereof” (Janssen Pharmaceutica NV, priority 2018, dated 2024) can be followed below.

The subject of assay [1] is pS6K1 (p-p70 S6 Kinase (Thr389)) in MCF-7 cells. The assay is described as follows: AlphaLISA Ultra pS6K1 Assay. Format: cell-based. As to conditions: Homo sapiens, 1.5 h; MCF7 cells, 90 min. The protocol: AlphaLISA Ultra pS6K1 Assay
1. Seed MCF-7 cells in Corning 3701 plate and incubate for 20˜24 hour. 12,000˜16,000 cells will be seeded in 36 μL medium per well.
2. Change the culture medium with fresh medium and incubate for another 2 hours.
3. Add 12 μL (4×) compounds into the cell plate by HAMILTON. Final DMSO concentration is 0.5%. Incubate for 90 minutes.
4. Aspirate […] by HAMILTON, 10 μL rest per well.
5. Add 10 μL 2× lysis buffer using HAMILTON; total volume in wells is 20 μL. Allow cells to shake for 30 min. Cover plate by plastic foil and store plate at −80° C. up to analysis.
6. Thaw cell lysate at RT and transfer 10 μL lysate to assay plate (Optiplate-384).
7. Add 5 μL acceptor beads into assay plate and incubation for 2 hours
8. Add 5 μL donor beads and incubation for 2 hours
9. Count the plate by EnSpire Multimode Plate Reader

The next assay concerns mTORC1 over mTORC2. The assay is described as follows: mTORC1 selectivity over mTORC2 at 24 hrs (Western blot based pS6K1 and pAKT assay). The following applies: 24 hrs. In kind it is cell-based. The protocol:
Western Blot Based pS6K1 and pAKT Assay at 24 and 48 Hour Timepoints
1. Seed six well plate with 500,000 PC3 cells per well and incubate for 20˜24 hour.
2. Add compounds into the cell plate. Incubate for 24 to 48 hours.
4. Plate is placed on ice and the media is removed via aspiration. The wells are washed with 1 mL of 1× PBS and then fully aspirated.
5. 110 μL of 1% Triton Lysis Buffer is added and each well is scraped vigorously.
6. Cell homogenates are transferred to 1.5 mL eppendorf tubes on ice and spun down at 4° C. for 10 minutes at 10,000 rpm.
9. The membranes were washed 3× with TBS-T with a 5 minute incubation between each wash then incubated with secondary antibody (LiCor IRDye 800 Donkey Anti Rabbit) for at least 30 minutes.
10. The membranes were washed 3× with TBS-T with a 5 minute incubation between each wash.
11. The gels were then incubated for 5 minutes with PBS at room temperature then imaged using a Li-Cor.
“N/A” stands for “not assayed.”

With `CNC(=O)CCCO[C@H]1C[C@@H]2CC[C@@H](C)[C@@](O)(O2)C(=O)C(=O)N2CCCC[C@H]2C(=O)O[C@H]([C@H](C)C[C@@H]2CC[C@@H](OCCO)[C@H](OC)C2)CC(=O)[C@H](C)/C=C(\C)[C@@H](O)[C@@H](OC)C(=O)[C@H](C)C[C@H](C)/C=C/C=C/C=C/1C` [I-60, 4-[[(22E, 24E,26E,27E,34R,35S,36R,37R,39S,41S,43S,44S,45R,46R,56R)-45, 56-dihydroxy-44-[(1R)-2-[(1S,3R,4R)-4-(2-hydroxyethoxy)-3-methoxy-cyclohexyl]-1-methyl-ethyl]-46-methoxy-34, 35,36,37,47,48-hexamethyl-49,50,51,52,53-pentaoxo-68,69-dioxa-58-azatricyclohexatriaconta-22, 24,26(47),27(48)-tetraen-43-yl]oxy]-N-methyl-butanamide], the IC50 in assay [1] lay within 1 to 10 nM. Moreover, the “mTORC1 selective @ 24 hrs” value with mTORC1 over mTORC2 was “YES”.

`CO[C@@H]1C[C@H](C[C@@H](C)[C@@H]2CC(=O)[C@H](C)/C=C(\C)[C@@H](O)[C@@H](OC)C(=O)[C@H](C)C[C@H](C)/C=C/C=C/C=C(\C)[C@H](OCCCC(=O)N(C)C)C[C@@H]3CC[C@@H](C)[C@@](O)(O3)C(=O)C(=O)N3CCCC[C@H]3C(=O)O2)CC[C@H]1OCCO` [I-61, 4-[[(23E,25E,27E,28E,35R,36S,37R,38R,40S,42S,44R,45S,46R,47R,57R)-46, 57-dihydroxy-45-[(1R)-2-[(1S,3R,4R)-4-(2-hydroxyethoxy)-3-methoxy-cyclohexyl]-1-methyl-ethyl]-47-methoxy-35, 36,37,38,48,49-hexamethyl-50,51,52,53,54-pentaoxo-69,70-dioxa-58-azatricyclohexatriaconta-23, 25,27(48),28(49)-tetraen-44-yl]oxy]-N,N-dimethyl-butanamide] returned an IC50 in assay [1] of 1 to 10 nM. Also, in the assay on mTORC1 over mTORC2, the “mTORC1 selective @ 24 hrs” value was “YES”.

`CO[C@@H]1CC(C[C@@H](C)C2CC(=O)[C@H](C)/C=C(\C)[C@@H](O)[C@@H](OC)C(=O)[C@H](C)C[C@H](C)/C=C/C=C/C=C(\C)[C@H](OCCOCC(F)(F)F)C[C@@H]3CC[C@@H](C)[C@@](O)(O3)C(=O)C(=O)N3CCCC[C@H]3C(=O)O2)CC[C@H]1OCCO` (stereo partly drawn) [I-70, (21E,23E,25E,26E,33R,34S,35R,36R,38S,40S,42S,43R,44R,45R,54R)-44, 54-dihydroxy-43-[(1R)-2-[(1S,3R,4R)-4-(2-hydroxyethoxy)-3-methoxy-cyclohexyl]-1-methyl-ethyl]-45-methoxy-33, 34,35,36,46,47-hexamethyl-42-[2-(2,2,2-trifluoroethoxy)ethoxy]-65, 66-dioxa-56-azatricyclohexatriaconta-21,23,25(46),26(47)-tetraene-48,49,50,51,52-pentone] came in with an IC50 in assay [1] of 1 to 10 nM. Also, the “mTORC1 selective @ 24 hrs” value in the assay on mTORC1 over mTORC2 is “YES”.

`CO[C@@H]1C[C@H](C[C@@H](C)[C@@H]2CC(=O)[C@H](C)/C=C(\C)[C@@H](O)[C@@H](OC)C(=O)[C@H](C)C[C@H](C)/C=C/C=C/C=C(\C)[C@H](OCCOCCOCCOCCO)C[C@@H]3CC[C@@H](C)[C@@](O)(O3)C(=O)C(=O)N3CCCC[C@H]3C(=O)O2)CC[C@H]1OCCO` [I-114, (21E,23E,25E,26E,38R,39S,40R,41R,43S,45S,47R,48S,49R,50R,59R)-49, 59-dihydroxy-47-[2-[2-[2-(2-hydroxyethoxy)ethoxy]ethoxy]ethoxy]-48-[(1R)-2-[(1S,3R, 4R)-4-(2-hydroxyethoxy)-3-methoxy-cyclohexyl]-1-methyl-ethyl]-50-methoxy-38,39,40,41,51, 52-hexamethyl-70,71-dioxa-60-azatricyclohexatriaconta-21,23,25(51),26(52)-tetraene-53, 54,55,56,57-pentone] returned an IC50 in assay [1] of 1 to 10 nM. In addition, the “mTORC1 selective @ 24 hrs” value in the assay on mTORC1 over mTORC2 was “YES”.

Turning to `CO[C@@H]1C[C@H](C[C@@H](C)[C@@H]2CC(=O)[C@H](C)/C=C(\C)[C@@H](O)[C@@H](OC)C(=O)[C@H](C)C[C@H](C)/C=C/C=C/C=C(\C)[C@H](OCC(CO)CO)C[C@@H]3CC[C@@H](C)[C@@](O)(O3)C(=O)C(=O)N3CCCC[C@H]3C(=O)O2)CC[C@H]1O` [I-4], the IC50 in assay [1] is 0.1 to 1 nM. Moreover, the “mTORC1 selective @ 24 hrs” value in the assay with mTORC1 over mTORC2 is recorded as “YES”.

In assay [1], `CO[C@@H]1C[C@H](C[C@@H](C)[C@@H]2CC(=O)[C@H](C)/C=C(\C)[C@@H](O)[C@@H](OC)C(=O)[C@H](C)C[C@H](C)/C=C/C=C/C=C(\C)[C@H](OCCOCCO)C[C@@H]3CC[C@@H](C)[C@@](O)(O3)C(=O)C(=O)N3CCCC[C@H]3C(=O)O2)CC[C@H]1OCCO` [I-116, (21E,23E,25E,26E,34R,35S,36R,37R,39S,41S,43R,44S,45R,46R,55R)-45, 55-dihydroxy-43-[2-(2-hydroxyethoxy)ethoxy]-44-[(1R)-2-[(1S,3R, 4R)-4-(2-hydroxyethoxy)-3-methoxy-cyclohexyl]-1-methyl-ethyl]-46-methoxy-34,35,36,37,47,48-hexamethyl-66,67-dioxa-56-azatricyclohexatriaconta-21, 23,25(47),26(48)-tetraene-49,50,51,52,53-pentone] gave an IC50 of 0.1 to 1 nM. The “mTORC1 selective @ 24 hrs” value in the assay with mTORC1 over mTORC2 is “YES”.

Molecule `CO[C@@H]1C[C@H](C[C@@H](C)[C@@H]2CC(=O)[C@H](C)/C=C(\C)[C@@H](O)[C@@H](OC)C(=O)[C@H](C)C[C@H](C)/C=C/C=C/C=C(\C)[C@H](OCCOCCOCC(F)(F)F)C[C@@H]3CC[C@@H](C)[C@@](O)(O3)C(=O)C(=O)N3CCCC[C@H]3C(=O)O2)CC[C@H]1OCCO` [I-84] gave an IC50 in assay [1] of 0.1 to 1 nM. Further, the “mTORC1 selective @ 24 hrs” value with mTORC1 over mTORC2 was “YES”.

In assay [1], `COCCOCCO[C@@H]1C[C@@H]2CC[C@@H](C)[C@@](O)(O2)C(=O)C(=O)N2CCCC[C@H]2C(=O)O[C@H]([C@H](C)C[C@@H]2CC[C@@H](O)[C@H](OC)C2)CC(=O)[C@H](C)/C=C(\C)[C@@H](O)[C@@H](OC)C(=O)[C@H](C)C[C@H](C)/C=C/C=C/C=C/1C` [I-119, (22E,24E,26E,27E,33R,34S,35R,36R,38S,40S,43S,44R,45R,54R)-44,54-dihydroxy-43-[(1R)-2-[(1S, 3R,4R)-4-hydroxy-3-methoxy-cyclohexyl]-1-methyl-ethyl]-45-methoxy-42-[R-2-(2-methoxyethoxy)ethoxy]-33, 34,35,36,46,47-hexamethyl-64,65-dioxa-55-azatricyclohexatriaconta-22, 24,26(46),27(47)-tetraene-48,49,50,51,52-pentone] came in with an IC50 of less than 0.1 nM. Moreover, the “mTORC1 selective @ 24 hrs” value in the assay with mTORC1 over mTORC2 was “YES”.

`CNC(=O)CCCOC1C[C@@H]2CC[C@@H](C)[C@@](O)(O2)C(=O)C(=O)N2CCCC[C@H]2C(=O)OC([C@H](C)CC2CC[C@@H](OCCO)[C@H](OC)C2)CC(=O)[C@H](C)/C=C(\C)[C@@H](O)[C@@H](OC)C(=O)[C@H](C)C[C@H](C)/C=C/C=C/C=C/1C` (stereo partly drawn) [I-68, 4-[[(22E,24E,26E,27E,34R,35S,36R,37R,39S,41S,44S,45R,46R, 56R)-45,56-dihydroxy-44-[(1R)-2-[(1S,3R,4R)-4-(2-hydroxyethoxy)-3-methoxy-cyclohexyl]-1-methyl-ethyl]-46-methoxy-34, 35,36,37,47,48-hexamethyl-49,50,51,52,53-pentaoxo-68,69-dioxa-58-azatricyclohexatriaconta-22, 24,26(47),27(48)-tetraen-43-yl]oxy]-N-methyl-butanamide] came in with an IC50 in assay [1] of 1 to 10 nM. In the assay on mTORC1 over mTORC2, the “mTORC1 selective @ 24 hrs” value is reported as “YES”.
